This note sets out measurements from patent publication US10632127B2, “Targeted notch pathway inhibitors” (Hoffmann-La Roche Inc., priority 2015, dated 2020).

A short description of data set [1]: Pharmacokinetic assessment in male Wistar rats (i.v.). It is filed as in vivo, rat. As to conditions: for 8 in kidney, relative amount (arbitrarily set to 100%) / 8 in liver, relative amount (kidney = 100%) / concentration at 0.25 h / concentration at 1.25 h / concentration at 2.2 h / concentration at 7 h: 8 3.5 mg/kg i.v.; for concentration at 0.25 h / concentration at 1.25 h / concentration at 2.2 h / concentration at 7 h: rat, iv. The procedure: For PK evaluation, the compounds were administered i.p to male C57BL/6 mice in suspension (gelatine/saline 7.5%/0.62% in water) using an administration volume of 4 mL/kg. Blood samples were collected in tubes containing EDTA, plasma was separated by centrifugation and stored at −80° C. Liver and kidney samples (˜100 mg aliquots) were homogenized in three volumes of water using Precellys tissue homogenization tubes (precellys.com). 25 μL of each tissue homogenate was further diluted with 25 μL blank plasma to produce the final tissue homogenate for extraction. All samples were analyzed using protein precipitation followed by LC-MS/MS analysis. Briefly, 50 μL plasma or final tissue homogenate were mixed with 50 μL 0.5M HClO4/acetonitrile 9/1 (containing 200 ng/mL internal standard bosentan). Samples were stirred and 300 μL water was added followed by centrifugation at 5600 rpm (4° C., 10 min). 10 μL supernatant was analyzed by LC/MS analysis. Calibration standards in plasma were prepared the same way. The LC column and conditions used were: Phenomenex, Polar RP, 4 μm, 50×2.1 mm at 0.4 mL/min flow rate with a 3 min gradient from 95% solvent A to 95% solvent B (Solvent A: Water/ACN/HCOOH, 90:10:0.1+10 mM NH4 formate; Solvent B: Water/ACN/HCOOH, 10:90:0.1+10 mM NH4 formate). Mass spectrometric conditions were: Thermo TSQ Vantage with positive heated electrospray ionization in MS/MS mode. Compounds mass transitions monitored were m/z 320.7 to 119.9. PK parameters for all studies were calculated using Phoenix WinNonlin Software.
We next determined the stability, tissue distribution and cleavage rate in plasma, liver and kidney of the designed prodrugs in male Wistar rats. In the in vivo screen, the kinetics and distribution of the prodrugs Ac-γ-Glu-SecrI (13a) and Ac-γ-Glu-O-SecrI (13c) were compared with the active γ-secretase inhibitor SecrI (8). After i.v. administration in male Wistar rats, the disappearance of the prodrugs and the formation of the active amine-SecrI (11a), amine-O-SecrI (11b) and SecrI (8) were compared in plasma, liver and kidney (Table 7A-C). First, we determined the pharmacokinetics (PK) behavior of SecrI (8) following i.v. administration (Table 7A). […] Liver and kidney exposure were much higher, with same exposure in liver and kidney. […] The selectivity towards kidney stayed constant over time. The carbonate analogue Ac-γ-Glu-O-SecrI (13c) prodrug was converted to a lower extent than the Ac-γ-Glu-SecrI (13a) to amine-O-SecrI (11b) but more to the linker free γ-secretase inhibitor 8 (Table 7C).
Plasma and tissue concentrations of administered compound (A-C) and formed amine-SecrI (11a), amine-O-SecrI (11b) or SecrI (8) (B-C) were determined following i.v. administration in rats (no standard deviation given due to sparse sampling; n≤3 rats per time point). Numbers in parentheses represent relative amounts with the exposure of kidney arbitrarily set at each time point to 100%. […] BQL=below quantifiable limit.

The target in data set [2] is Notch signal transduction pathway. In words: In vitro Notch signal transduction pathway activity assay (DR215/F2 luciferase reporter). In kind it is cell-based, human. Conditions: for IC50 for blockade of the Notch pathway, range in words: DR215/F2 cell reporter assay; for IC50: Homo sapiens, 215/F2 reporter cell line, 19 h, mean of at least 3 experiments. The procedure:
The compounds were dissolved in dimethyl sulfoxide (DMSO) at 10 mM stock solution, aliquoted and stored at −4° C. until use, then diluted in PBS or cell culture medium. In the experimental settings, controls containing increasing concentrations of DMSO, corresponding to the amount of DMSO of the diluted compounds were always included. For in vivo experiments, the compounds were dissolved in 0.9% NaCl, incubated 30 min at 40° C. and sonicated for 5 min.
The requirement of proteolytic activation of the prodrugs to inhibit Notch cleavage by the γ-secretase, was investigated using a reporter assay (Table 3). The DR215/F2 cell line expresses a reporter construct designed to monitor the activity of the Notch signal transduction pathway. The DR215/F2 cell line 39 carries two transgenes: the firefly luciferase reporter gene expressed under the control of the Gal4 promoter and the human Notch1 activator gene fused with the yeast Gal4 transcription factor. This assay confirmed that the prodrugs were able to inhibit γ-secretase and the activation of the Notch pathway. The DR215/F2 cell reporter assay was also used to determine the IC50 for blockade of the Notch pathway by all the compounds designed and prepared.
The values were determined using the 215/F2 reporter cell line for Notch activation by the γ-secretase. All values are the mean of at least 3 experiments.
The preparation and characterization of rat brain-derived EC219 endothelial cells have been described in Juillerat-Jeanneret, L. et al. In Vitro Cell. Dev. Biol. 1992, 28A, 537-543. These cells express high levels of APA and γ-GT activities and can be used for determining kinetics in living cells, and were chosen as APA- and γ-GT-positive representative cell models. EC219 cells were grown in DMEM medium containing 1 g/l glucose, 10% heat-inactivated fetal calf serum (FCS, EuroClone, UK) supplemented with 100 U/mL penicillin and 100 μg/mL streptomycin (P/S) on uncoated cell culture plastic ware. The HEK293 and HK2 human kidney cells are available from the ATCC (American Tissue Culture Collection, Manassas, Va., USA). HEK293 cells were grown on uncoated cell culture plastic ware in Iscove modified Dulbecco medium (IMDM, Life Technologies) containing 10% FCS and P/S. HK2 cells were grown on uncoated cell culture plastic ware in DMEM/F-12 GlutaMAX medium (Gibco) containing 5% FCS, P/S, 1% ITS (1.0 mg/ml bovine insulin, 0.55 mg/ml human transferrin and 0.5 μg/ml sodium selenite, Sigma-Aldrich) and 5 ng/ml hydrocortisone. The human HEK293-derived DR215/F2 embryonic kidney cell line, stably transfected with pFR Luc and APP-Notch Gal (plasmid DR215) as described in WO 2006/061136 A2 and Brockhaus, M. Neuroreport 1998 9, 1481-1486, were maintained using IMDM with 10% FCS supplemented with P/S and kept under double-selection with 150 μg/ml G-418 and 50 μg/ml hygromycin B on coated (1:100 Poly-L-lysine) cell culture plastic ware. In this assay, the Notch-Gal4 protein is bound to the cell membrane via its trans-membrane domain. The Notch intracellular domain is released by proteolytic cleavage mediated by the γ-secretase and moves to the cell nucleus where it activates the reporter luciferase gene transcript. Inhibition of γ-secretase thus decreases luciferase activity. Briefly, cultures were grown in 96-well microplates to 80% confluence; the cells were then washed in PBS and exposed to decreasing concentrations of the γ-secretase-inhibitor analogues in complete IMDM culture medium without red phenol at 37° C. for 19 h. Then 75 μl of supernatant from each well was removed and the luciferase activity was determined by adding 25 μl of Steady-Glo luciferase assay reagent (Promega).
Background: In a reporter assay the amount or activity of a reporter protein is the signal.

Molecules are shown by their SMILES. Read-outs that look alike come from different tables or passages of the source.

One may read the IC50 as the concentration at which inhibition is half-maximal. Read a high IC50 as weaker potency in that assay.

On to `C[C@H]1Oc2ccc(F)cc2N(CCOC(=O)NCCN)C(=O)[C@H]1NC(=O)[C@@](C)(O)C(=O)NCC(F)(F)C(F)(F)F.Cl` [Compound 11a, 2-((2R,3S)-7-Fluoro-3-((S)-2-hydroxy-2-methyl-3-oxo-3-(2,2,3,3,3-pentafluoropropylamino)propanamido)-2-methyl-4-oxo-3,4-dihydrobenzo[b][1,4]oxazepin-5(2H)-yl)ethyl 2-aminoethylcarbamate hydrochloride], for which the “Plasma concentration of formed 11a” value was “BQL” in data set [1] (13a 1.6 mg/kg i.v., 0.25 h); “BQL” in data set [1] (13a 1.6 mg/kg i.v., 0.5 h); “BQL” in data set [1] (13a 1.6 mg/kg i.v., 4 h); “BQL” in data set [1] (13a 1.6 mg/kg i.v., 7 h). Also, the “Liver concentration of formed 11a” value in data set [1] (13a 1.6 mg/kg i.v., 7 h) is “BQL”. For the same compound, the “IC50 for blockade of the Notch pathway, range in words” value (shortened to “IC50 for blockade”) in data set [2] is on record as “low nanomolar range”. Also, in data set [2], 45.6 nM corresponded to half-maximal inhibition (IC50).
As for `C[C@H]1Oc2ccc(F)cc2N(CCO)C(=O)[C@H]1NC(=O)[C@@](C)(O)C(=O)NCC(F)(F)C(F)(F)F` [Compound 8, N-[(6R,7S)-2-Fluoro-9-(2-hydroxy-ethyl)-6-methyl-8-oxo-6,7,8,9-tetrahydro-5-oxa-9-aza-benzocyclohepten-7-yl]-2-(S)-hydroxy-2-methyl-N′-(2,2,3,3,3-pentafluoro-propyl)-malonamide], the “8 in kidney, relative amount (arbitrarily set to 100%)” value in data set [1] (0.25 h), in data set [1] (1.25 h), in data set [1] (2.2 h) and in data set [1] (7 h) was “(100) %” each time. In addition, the “8 in liver, relative amount (kidney = 100%)” value in data set [1] (0.25 h) is listed as “(93) %”; in data set [1] (1.25 h), “(101) %”; in data set [1] (2.2 h), “(133) %”; in data set [1] (7 h) it was “(126) %”. The “Plasma concentration of formed 8” value in data set [1] (13c 1.5 mg/kg i.v., 4 h) was “BQL”; in data set [1] (13c 1.5 mg/kg i.v., 7 h), “BQL”. Besides, in data set [1] (13c 1.5 mg/kg i.v., 7 h), the “Formed 8 in kidney, relative amount (arbitrarily set to 100%)” value is given as “(100) %”. Besides, the “Formed 8 in liver, relative amount (kidney = 100%)” value in data set [1] (13c 1.5 mg/kg i.v., 7 h) is listed as “(43) %”. Also, the “kidney selectivity, in words” value in data set [1] (formed after 13c i.v.) is “only a moderate kidney selectivity”. For the same compound, in data set [1] (i.v.), the “plasma clearance, in words” value is “rapid plasma clearance”. For the same compound, the “plasma exposure, in words” value in data set [1] (i.v.) is “good plasma exposure”. Besides, the concentration at 0.25 h in data set [1] (kidney, 0.25 h, read-out: Kidney concentration of 8) was 3320 ng/g; in data set [1] (liver, 0.25 h, read-out: Liver concentration of 8) it was 3100 ng/g; in data set [1] (plasma, 0.25 h, read-out: Plasma concentration of 8) it was 964 ng/mL. For the same compound, the concentration at 1.25 h stood at 844 ng/g in data set [1] (kidney, 1.25 h, read-out: Kidney concentration of 8); 852 ng/g in data set [1] (liver, 1.25 h, read-out: Liver concentration of 8); 198 ng/mL in data set [1] (plasma, 1.25 h, read-out: Plasma concentration of 8). Further, the concentration at 2.2 h in data set [1] (kidney, 2.2 h, read-out: Kidney concentration of 8) turned out to be 225 ng/g; in data set [1] (liver, 2.2 h, read-out: Liver concentration of 8), 298 ng/g; in data set [1] (plasma, 2.2 h, read-out: Plasma concentration of 8) it was 39.7 ng/mL. Besides, the concentration at 7 h turned out to be 92.4 ng/g in data set [1] (kidney, 7 h, read-out: Kidney concentration of 8); 116 ng/g in data set [1] (liver, 7 h, read-out: Liver concentration of 8); 18.4 ng/mL in data set [1] (plasma, 7 h, read-out: Plasma concentration of 8). Also, the “IC50 for blockade” value in data set [2] is reported as “low nanomolar range”. The compound further gave an IC50 in data set [2] of 4.4 nM.
Turning to `CC(=O)N[C@@H](CCC(=O)O)C(=O)NCCNC(=O)OCCN1C(=O)[C@@H](NC(=O)[C@@](C)(O)C(=O)NCC(F)(F)C(F)(F)F)[C@@H](C)Oc2ccc(F)cc21` [Compound 15a, (S)-4-acetamido-5-(2-((2-((2R,3S)-7-fluoro-3-((S)-2-hydroxy-2-methyl-3-oxo-3-(2,2,3,3,3-pentafluoropropylamino)propanamido)-2-methyl-4-oxo-3,4-dihydrobenzo[b][1,4]oxazepin-5(2H)-yl)ethoxy)carbonylamino)ethylamino)-5-oxopentanoic acid], in data set [2], the “IC50 for blockade” value is “high nM range” and the IC50 was 625 nM.
